Target: T1, YFP-tagged full length 0N4R-Tau P301S aggregates seeded by 416-AD11A lysate (T24 cells) (Homo sapiens, UniProt P10636, P618S)
T1 construct: C-terminally YFP-tagged full length 0N4R-Tau carrying a P301S mutation; expressed in transfected cells
Assay: Tau-AD high throughput screening (counter screen) in T24 cells
Assay type: cell-based
Settings: T24 cells transfected with 416-AD11A lysate
Description: A fragment of the Middle Tempral Gyrus (MTG) from Alzheimer's Disease (AD) patient 2217 was resuspended in 9 volumes of PBS (ml/g of brain) and homogenized 3×12 seconds using a probe homogenizer (Thomas Scientific) with disposable Omni Tip plastic homogenizing probes (Thomas Scinetific Cat No 3409Y77) to generate a 10% brain homogenate (10% AD11-BH). The 10% AD11-BH was clarified of insoluble debris by centrifugation at 800×g for 5 minutes. The resulting supernatant was collected and the protein concentration of this clarified BH (AD11-CBH) was determined by bicinchoninic acid assay (BCA) (Thermo Fisher Cat No. 23227). HEK293 cells stably expressing a C-terminally Clover-tagged truncated 4R-Tau^243-382 transgene containing the P301L and V337M mutations and a C-terminally Ruby-tagged truncated 3R-Tau^243-382 transgene containing the L266V and V337M mutations (128/139 cells) were transfected with the AD11-CBH using lipofectamine 2000 (LF2K) (Thermo Fisher Cat No. 11668500). Briefly, 0.32 μl of LF2K were diluted in 5 μl Opti-MEM (Thermo Scientific Cat No 31985070) per well of a 384-well plate and incubated for 5 min at room temperature (RT). This mixture was added to 0.32 μg of AD11-CBH diluted in 5 μl of PBS per well of a 384-well plate and vortex briefly. The transfection mixture was incubated at room temperature for 90 min. The transfection complexes were subsequently added to a single well of a 384-well plate containing 3500 128/139 cells. After 3 days the cells were harvested, counted and plated at a density of 1 cell/well in a 96-well plate. A clonal cell line containing Clover and Ruby positive Tau aggregates was selected and termed 416-AD11A cells. Following the expansion of these 416-AD11A cells, a cell lysate was prepared by freeze/thaw. The cells from a confluent T175 flask were harvested in 1 ml of PBS containing 1× protease inhibitor cocktail by scraping. The cell suspension was subjected to 4 cycles of freezing in liquid nitrogen for 5 minutes followed by thawing at 37° C. for 5 minutes. The resulting cell lysate was centrifuged at 2000 RPM for 10 minutes to remove the cell debris and the protein concentration of the resulting 416-AD11A lysate was determined by BCA assay and aliquots frozen for future use.
HEK293 cells stably expressing C-terminally YFP-tagged full length 0N4R-Tau carrying a P301S mutation (T24 cells) are plated at a density of 4000 cells per well of a 384-well black walled, clear bottom plate (Greiner Cat No 5678-1091Q) in 60 μl of complete DMEM (DMEM (Corning Cat No 10-013-CV), 10% FBS (VWR Cat No 97068-085, 0.5% Penicilin/streptomycin (Gibco Cat No 15140-122)) containing 0.1 μg/ml Hoechst Dye (Thermo Scientific Cat No H3570). Transfection complexes are prepared by diluting 0.15 μg of 416-AD11A lysate or HEK lysate in 5 μl of PBS per well to be transfected and 0.15 μl of Lipofectamine 2000 (LF2K) (ThermoFisher Cat No 11668500) in 5 μl of Opti-MEM per well to be transfected in separate tubes. The pre-diluted 416-AD11A or HEK lysates and LF2K are subsequently mixed and allowed to incubate for 90 minutes at RT. A 10 μl aliquot of the 416-AD11A or HEK transfection complexes is added to the appropriate wells of the 384-well plate containing the T24 cells using the Bravo liquid handling platform (Agilent). Wells A23-P24 of the 384-well plate are transfected with HEK lysate to act as a reference point for spontaneous aggregation of 0N4R^P301S and for transfection related toxicity. The dilution of test compounds is performed using the Bravo liquid handling platform (Agilent). The control is DMSO in the absence of any test compound. Briefly, 1 μl of each test compound (5 mM stock) in the 384-well test plate was transferred to a 384-well plate (Greiner Cat No 781280) containing 61.5 μl of complete DMEM to generate a working stock of compounds at 80 μM. […]

T1 sequence (P10636 1-383 isoform P10636-6 P243S): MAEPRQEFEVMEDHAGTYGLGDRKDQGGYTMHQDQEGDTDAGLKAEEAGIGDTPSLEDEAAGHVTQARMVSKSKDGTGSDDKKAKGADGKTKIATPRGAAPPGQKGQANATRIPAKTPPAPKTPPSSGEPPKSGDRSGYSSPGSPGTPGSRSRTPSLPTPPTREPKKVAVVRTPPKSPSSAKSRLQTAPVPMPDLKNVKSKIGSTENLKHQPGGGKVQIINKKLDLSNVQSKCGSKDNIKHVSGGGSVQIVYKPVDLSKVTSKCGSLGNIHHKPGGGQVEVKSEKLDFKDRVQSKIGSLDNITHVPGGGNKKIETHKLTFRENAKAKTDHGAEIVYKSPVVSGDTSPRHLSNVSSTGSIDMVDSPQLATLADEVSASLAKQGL

Row | SMILES | AD Tau Aggregates (% control)
1 | CNc1nc(=O)n(-c2nc(-c3ccc(Cl)cc3)oc2-c2ccc(Cl)c(F)c2)cc1F.Cl [Compound 126, 1-(5-(4-chloro-3-fluorophenyl)-2-(4-chlorophenyl)oxazol-4-yl)-5-fluoro-4-(methylamino)pyrimidin-2(1H)-one hydrochloride] | 93
2 | CCNc1nc(=O)n(-c2nc(-c3ccc(Cl)cc3)oc2-c2ccc(Cl)c(F)c2)cc1F [Compound 127, 1-(5-(4-chloro-3-fluorophenyl)-2-(4-chlorophenyl)oxazol-4-yl)-4-(ethylamino)-5-fluoropyrimidin-2(1H)-one] | 105
3 | CNc1nc(=O)n(-c2nc(-c3ccc(C)s3)oc2-c2ccc(Cl)c(F)c2)cc1F [Compound 132, 1-(5-(4-chloro-3-fluorophenyl)-2-(5-methylthiophen-2-yl)oxazol-4-yl)-5-fluoro-4-(methylamino)pyrimidin-2(1H)-one] | 95
4 | CNc1nc(=O)n(-c2nc(-c3cccc(C)c3)oc2-c2ccc(F)c(F)c2)cc1F.Cl [Compound 133, 1-(5-(3,4-difluorophenyl)-2-(m-tolyl)oxazol-4-yl)-5-fluoro-4-(methylamino)pyrimidin-2(1H)-one hydrochloride] | 92
5 | CNc1nc(=O)n(-c2nc(-c3cccc(C)c3)oc2-c2cc(Cl)cs2)cc1F [Compound 135, 1-(5-(4-chlorothiophen-2-yl)-2-(m-tolyl)oxazol-4-yl)-5-fluoro-4-(methylamino)pyrimidin-2(1H)-one] | 100
6 | CC(=O)Cc1nccc2cc(-c3nc(-n4ccc5cccnc5c4=O)c(-c4ccc(C(F)(F)F)cc4)o3)ccc12 [Compound 176, 7-(2-(1-(2-oxopropyl)isoquinolin-6-yl)-5-(4-(trifluoromethyl)phenyl)oxazol-4-yl)-1,7-naphthyridin-8(7H)-one] | 96
7 | CC(O)COc1ccc(-c2nc(-n3cc4ccoc4nc3=O)c(-c3ccc(F)cc3)o2)cc1 (stereo not shown) [Compound 182, 3-[5-(4-fluorophenyl)-2-[4-(2-hydroxypropoxy)phenyl]-1,3-oxazol-4-yl]-2H,3H-furo[2,3-d]pyrimidin-2-one] | 93
8 | Cc1cc(-c2nc(-n3cc4ccn(C5CC5)c4nc3=O)c(-c3ccc(Cl)c(F)c3)o2)ccn1 [Compound 232, 3-[5-(4-chloro-3-fluorophenyl)-2-(2-methylpyridin-4-yl)-1,3-oxazol-4-yl]-7-cyclopropyl-2H,3H,7H-pyrrolo[2,3-d]pyrimidin-2-one] | 91
9 | Cc1cc(-c2nc(-n3cc4ccn(C5CC5)c4nc3=O)c(-c3ccc(F)c(F)c3)o2)ncc1F [Compound 234] | 85
10 | CNC(=O)c1ncc2c(N3CCCC3)nn(-c3ccc(F)cc3)c2n1 [Compound 247, 1-(4-fluorophenyl)-N-methyl-3-(pyrrolidin-1-yl)-1H-pyrazolo[3,4-d]pyrimidine-6-carboxamide] | 120
11 | CNC(=O)c1ncc2c(-c3cc4c(cnn4C)cc3F)nn(Cc3ccccc3)c2n1 [Compound 253] | 96
12 | CNC(=O)c1ncc2c(-c3cccc4c3OC(F)(F)O4)nn(Cc3ccccc3)c2n1 [Compound 254] | 100
13 | CNC(=O)c1ncc2c(-c3ccc(F)cc3)nn(C3CCc4ccc(F)cc43)c2n1 (stereo not shown) [Compound 257, 1-(6-fluoro-2,3-dihydro-1H-inden-1-yl)-3-(4-fluorophenyl)-N-methyl-1H-pyrazolo[3,4-d]pyrimidine-6-carboxamide] | 100
14 | CNC(=O)c1ncc2c(-c3ccc(F)cc3)nn(CC3CCCCC3)c2n1 [Compound 258] | 110
15 | CNC(=O)c1ncc2c(-c3ccc(F)cc3)nn(Cc3ccnc(F)c3)c2n1 [Compound 259] | 99
16 | CNC(=O)c1ncc2c(-c3ccc(F)cc3)nn(Cc3cccc(F)c3)c2n1 [Compound 260] | 95
